Experimental data: paper PMC5390467, “Novel lead structures with both Plasmodium falciparum gametocytocidal and asexual blood stage activity identified from high throughput compound screening” (Malaria Journal, 2017)
pIC50: −log10 of the molar value. Several values for one entry are separate records, joined by “and”; a condition that tells them apart may be missing. Equal values may be shown once.

What was measured:
[1] = biological target: T1, CDK4-cyclinD3 (Homo sapiens, UniProt P11802); assay: Kinome scan profile; assay type: binding; conditions: 10 μM
T1 construct: purchased DiscoverX (KINOMEscan)
T1 sequence (P11802 whole entry): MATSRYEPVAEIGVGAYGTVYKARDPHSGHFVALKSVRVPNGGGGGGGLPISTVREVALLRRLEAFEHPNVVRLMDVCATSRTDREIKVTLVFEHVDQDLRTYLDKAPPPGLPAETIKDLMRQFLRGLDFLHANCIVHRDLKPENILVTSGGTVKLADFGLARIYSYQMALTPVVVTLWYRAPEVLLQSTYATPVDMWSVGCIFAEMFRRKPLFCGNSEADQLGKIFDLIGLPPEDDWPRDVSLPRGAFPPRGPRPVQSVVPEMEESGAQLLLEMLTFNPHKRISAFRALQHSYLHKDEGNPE
T1 sequence (P30281 whole entry partner): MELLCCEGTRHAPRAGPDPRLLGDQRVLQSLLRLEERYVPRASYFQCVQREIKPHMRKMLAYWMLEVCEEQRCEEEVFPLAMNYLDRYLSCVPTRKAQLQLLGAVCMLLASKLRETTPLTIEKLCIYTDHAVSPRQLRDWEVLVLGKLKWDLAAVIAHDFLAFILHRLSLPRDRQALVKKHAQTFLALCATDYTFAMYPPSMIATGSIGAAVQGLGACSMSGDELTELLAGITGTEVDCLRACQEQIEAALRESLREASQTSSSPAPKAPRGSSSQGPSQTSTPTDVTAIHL

[2] = biological target: T2, IKK-epsilon (Homo sapiens, UniProt Q14164); assay: Kinome scan profile; assay type: binding; conditions: 10 μM
T2 construct: purchased DiscoverX (KINOMEscan)
T2 sequence (Q14164 1-716): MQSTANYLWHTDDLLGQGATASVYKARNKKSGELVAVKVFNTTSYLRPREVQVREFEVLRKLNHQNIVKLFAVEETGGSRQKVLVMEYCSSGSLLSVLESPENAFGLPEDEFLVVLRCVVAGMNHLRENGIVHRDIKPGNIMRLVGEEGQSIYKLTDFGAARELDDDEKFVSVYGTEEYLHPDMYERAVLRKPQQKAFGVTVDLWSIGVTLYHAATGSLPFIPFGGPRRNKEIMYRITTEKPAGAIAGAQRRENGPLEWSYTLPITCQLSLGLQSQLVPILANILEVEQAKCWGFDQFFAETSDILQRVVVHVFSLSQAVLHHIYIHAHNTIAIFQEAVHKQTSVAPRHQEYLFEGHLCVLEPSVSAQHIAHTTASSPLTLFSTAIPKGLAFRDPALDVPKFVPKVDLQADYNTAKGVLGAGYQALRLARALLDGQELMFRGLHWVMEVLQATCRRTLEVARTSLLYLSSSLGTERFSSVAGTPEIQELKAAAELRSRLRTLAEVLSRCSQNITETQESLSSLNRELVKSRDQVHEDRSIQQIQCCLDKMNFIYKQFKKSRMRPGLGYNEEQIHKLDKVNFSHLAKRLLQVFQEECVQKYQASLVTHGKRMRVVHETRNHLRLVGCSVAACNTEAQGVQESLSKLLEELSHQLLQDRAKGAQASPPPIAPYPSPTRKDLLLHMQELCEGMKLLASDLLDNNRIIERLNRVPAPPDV

[3] = biological target: T3, RSK2(Kin.Dom.2-C-terminal) (Homo sapiens, UniProt P51812); assay: Kinome scan profile; assay type: binding; conditions: 10 μM
T3 construct: RSK2(Kin.Dom.2-C-terminal); purchased DiscoverX (KINOMEscan)

[4] = biological target: T4, TRKA (Homo sapiens, UniProt P04629); assay: Kinome scan profile; assay type: binding; conditions: 10 μM
T4 construct: purchased DiscoverX (KINOMEscan)
T4 sequence (P04629 33-796): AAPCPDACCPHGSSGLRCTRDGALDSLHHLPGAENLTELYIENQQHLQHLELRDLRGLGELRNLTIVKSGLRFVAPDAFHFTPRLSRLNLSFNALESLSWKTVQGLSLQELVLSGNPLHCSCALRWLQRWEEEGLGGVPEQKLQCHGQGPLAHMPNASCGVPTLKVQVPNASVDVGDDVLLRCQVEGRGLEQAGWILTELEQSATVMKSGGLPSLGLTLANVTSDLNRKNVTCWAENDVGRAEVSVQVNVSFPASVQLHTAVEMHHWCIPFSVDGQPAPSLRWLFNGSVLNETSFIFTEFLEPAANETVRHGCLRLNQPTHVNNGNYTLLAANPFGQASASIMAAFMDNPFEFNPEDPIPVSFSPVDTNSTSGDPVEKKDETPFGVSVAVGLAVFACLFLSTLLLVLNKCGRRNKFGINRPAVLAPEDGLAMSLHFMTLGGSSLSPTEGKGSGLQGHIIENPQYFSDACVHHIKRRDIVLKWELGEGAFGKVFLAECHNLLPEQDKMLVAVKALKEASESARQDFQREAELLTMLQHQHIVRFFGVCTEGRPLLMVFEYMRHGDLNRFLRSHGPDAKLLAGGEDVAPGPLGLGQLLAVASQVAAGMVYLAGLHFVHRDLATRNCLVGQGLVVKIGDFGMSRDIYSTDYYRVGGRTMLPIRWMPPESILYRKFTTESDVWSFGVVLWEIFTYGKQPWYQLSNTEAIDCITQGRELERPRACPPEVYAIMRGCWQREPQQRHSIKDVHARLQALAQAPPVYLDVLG

[5] = tested on: 468 human kinases; assay: human kinase profiling (Kinome scan, DiscoverX), whole panel; assay type: binding
[6] = biological target: T5, TYK2(JH1domain-catalytic) (Homo sapiens, UniProt P29597); assay: Kinome scan profile; assay type: binding; conditions: 10 μM
T5 construct: TYK2(JH1domain-catalytic); purchased DiscoverX (KINOMEscan)
T5 sequence (P29597 897-1176 limits assumed): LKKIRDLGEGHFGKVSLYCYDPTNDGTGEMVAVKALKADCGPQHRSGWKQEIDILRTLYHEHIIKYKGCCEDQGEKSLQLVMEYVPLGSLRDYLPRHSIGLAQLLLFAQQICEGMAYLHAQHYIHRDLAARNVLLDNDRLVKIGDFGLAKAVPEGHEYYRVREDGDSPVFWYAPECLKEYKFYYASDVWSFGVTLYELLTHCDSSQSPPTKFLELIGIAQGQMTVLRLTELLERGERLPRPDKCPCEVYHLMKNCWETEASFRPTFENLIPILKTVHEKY

[7] = biological target: T6, MYLK (Homo sapiens, UniProt Q15746); assay: Kinome scan profile; assay type: binding; conditions: 10 μM
T6 construct: purchased DiscoverX (KINOMEscan)
T6 sequence (Q15746 whole entry): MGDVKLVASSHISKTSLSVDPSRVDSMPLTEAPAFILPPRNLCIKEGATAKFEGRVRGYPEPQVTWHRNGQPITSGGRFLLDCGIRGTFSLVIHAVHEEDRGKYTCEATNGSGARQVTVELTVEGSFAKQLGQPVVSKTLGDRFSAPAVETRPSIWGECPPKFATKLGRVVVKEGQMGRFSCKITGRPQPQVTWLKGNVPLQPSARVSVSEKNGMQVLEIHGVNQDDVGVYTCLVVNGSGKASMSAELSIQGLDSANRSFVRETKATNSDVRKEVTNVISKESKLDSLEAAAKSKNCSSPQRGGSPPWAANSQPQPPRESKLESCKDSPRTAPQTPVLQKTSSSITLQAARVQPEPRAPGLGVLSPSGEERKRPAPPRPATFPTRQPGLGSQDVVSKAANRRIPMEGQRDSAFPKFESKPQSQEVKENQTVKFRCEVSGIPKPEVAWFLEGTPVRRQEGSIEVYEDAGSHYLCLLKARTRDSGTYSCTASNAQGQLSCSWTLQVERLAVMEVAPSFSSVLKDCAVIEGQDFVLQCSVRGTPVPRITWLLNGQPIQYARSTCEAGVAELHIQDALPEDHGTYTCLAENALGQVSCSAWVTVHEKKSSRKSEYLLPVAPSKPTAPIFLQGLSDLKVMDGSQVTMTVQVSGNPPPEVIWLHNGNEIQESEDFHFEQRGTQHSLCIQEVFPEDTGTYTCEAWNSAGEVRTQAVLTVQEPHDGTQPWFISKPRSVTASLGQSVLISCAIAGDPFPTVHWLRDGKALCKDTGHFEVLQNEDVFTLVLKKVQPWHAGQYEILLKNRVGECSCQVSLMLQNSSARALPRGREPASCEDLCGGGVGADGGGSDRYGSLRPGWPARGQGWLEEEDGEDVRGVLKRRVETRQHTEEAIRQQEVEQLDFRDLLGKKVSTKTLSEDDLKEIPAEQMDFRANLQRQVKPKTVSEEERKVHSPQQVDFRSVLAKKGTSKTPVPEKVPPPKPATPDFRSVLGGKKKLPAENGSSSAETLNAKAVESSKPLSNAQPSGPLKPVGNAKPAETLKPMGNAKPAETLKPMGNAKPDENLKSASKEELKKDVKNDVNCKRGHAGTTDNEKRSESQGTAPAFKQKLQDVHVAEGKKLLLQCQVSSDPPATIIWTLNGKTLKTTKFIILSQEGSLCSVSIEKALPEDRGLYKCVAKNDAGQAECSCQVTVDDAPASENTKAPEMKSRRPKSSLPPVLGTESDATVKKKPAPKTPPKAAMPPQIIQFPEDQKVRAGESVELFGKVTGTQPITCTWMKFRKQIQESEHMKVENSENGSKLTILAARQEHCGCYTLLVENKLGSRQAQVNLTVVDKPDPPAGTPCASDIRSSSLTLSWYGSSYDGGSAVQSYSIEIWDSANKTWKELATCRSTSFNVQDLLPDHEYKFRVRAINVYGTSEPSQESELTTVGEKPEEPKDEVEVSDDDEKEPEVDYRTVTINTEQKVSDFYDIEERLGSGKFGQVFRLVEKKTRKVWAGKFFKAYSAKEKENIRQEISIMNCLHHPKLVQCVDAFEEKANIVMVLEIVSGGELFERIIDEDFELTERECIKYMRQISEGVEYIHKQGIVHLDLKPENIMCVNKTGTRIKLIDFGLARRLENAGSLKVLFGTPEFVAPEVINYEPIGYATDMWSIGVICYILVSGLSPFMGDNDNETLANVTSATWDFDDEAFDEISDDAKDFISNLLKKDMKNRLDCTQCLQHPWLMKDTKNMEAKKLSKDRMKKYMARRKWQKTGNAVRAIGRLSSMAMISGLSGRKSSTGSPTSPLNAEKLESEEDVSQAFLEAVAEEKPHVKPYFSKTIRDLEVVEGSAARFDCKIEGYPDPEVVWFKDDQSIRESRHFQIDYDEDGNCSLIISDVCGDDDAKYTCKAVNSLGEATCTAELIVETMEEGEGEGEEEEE

[8] = tested on: P. falciparum NF54 gametocytes; assay: gametocyte viability assay (AlamarBlue); assay type: cell-based, Plasmodium falciparum
Description: Asexual parasites of P. falciparum strain NF54 were cultured as described previously. Briefly, parasites were maintained in RPMI 1640 medium containing 10% positive human serum + erythrocytes (5% haematocrit), 2.5% sodium bicarbonate and 11 µg/mL gentamicin at 37 °C with 5% CO2, 5% O2 and 90% N2. Gametocyte cultures were set up at 0.1% parasitaemia and on days 9–10 treated with 50 mM N-acetylglucosamine (NAG) to block further asexual growth. Stage III–V gametocytes were isolated by Percoll density gradient centrifugation on day 12 and returned to culture for 24 h before being used in the assay. At the time of the assay over 73% of the gametocytes were stage IV or V (Additional file 1). HepG2 cells (ATCC, cat. no. 77400) were cultured in 175-cm^2 tissue culture flasks with 30 ml growth medium at 37 °C in a 5% CO2 and 5% O2 humidified atmosphere. Growth medium was made with Dulbecco’s Modified Eagle Medium with 10% fetal bovine serum (FBS). Growth medium was replaced every other day and cells were passaged at 75% confluence.
Compounds from the Sytravon library (a retired Pharma screening collection that contains a diversity of novel small molecules, with an emphasis on medicinal chemistry-tractable scaffolds) were obtained as powder samples and dissolved in DMSO as […] stock solutions. Compound screening experiments were performed as previously described. In the primary screen, two concentrations for each compound were tested. No technical and biological replicates were involved. In the follow-up confirmation studies, three biological replicates were tested for each compound in both parasite assays. The positive control was 46 µM of Torin 2 and negative control was DMSO. Briefly, 2.5 μL/well incomplete medium was dispensed into each well of 1536-well plates using the Multidrop Combi followed by 23 nL compound transferring using the NX-TR Pintool (WAKO Scientific Solutions, San Diego, CA). Then, 2.5 μL/well of gametocytes was dispensed with a seeding density of 20,000 cells/well using the Multidrop Combi. The assay plates were incubated for 72 h at 37 °C with 5% CO2. After addition of 5 μL/well of 2X AlamarBlue dye (Life Technologies, cat. no. DAL1100), the plates were incubated for 24 h at 37 °C with 5% CO2 and then were read in a fluorescence detection mode (Ex = 525 nm, Em = 598 nm) on a ViewLux plate reader (PerkinElmer).

[9] = biological target: T7, JAK2(JH1domain-catalytic) (Homo sapiens, UniProt O60674); assay: Kinome scan profile; assay type: binding; conditions: 10 μM
T7 construct: JAK2(JH1domain-catalytic); purchased DiscoverX (KINOMEscan)

[10] = biological target: T8, ERBB3 (Homo sapiens, UniProt P21860); assay: Kinome scan profile; assay type: binding; conditions: 10 μM
T8 construct: purchased DiscoverX (KINOMEscan)
T8 sequence (P21860 20-1342): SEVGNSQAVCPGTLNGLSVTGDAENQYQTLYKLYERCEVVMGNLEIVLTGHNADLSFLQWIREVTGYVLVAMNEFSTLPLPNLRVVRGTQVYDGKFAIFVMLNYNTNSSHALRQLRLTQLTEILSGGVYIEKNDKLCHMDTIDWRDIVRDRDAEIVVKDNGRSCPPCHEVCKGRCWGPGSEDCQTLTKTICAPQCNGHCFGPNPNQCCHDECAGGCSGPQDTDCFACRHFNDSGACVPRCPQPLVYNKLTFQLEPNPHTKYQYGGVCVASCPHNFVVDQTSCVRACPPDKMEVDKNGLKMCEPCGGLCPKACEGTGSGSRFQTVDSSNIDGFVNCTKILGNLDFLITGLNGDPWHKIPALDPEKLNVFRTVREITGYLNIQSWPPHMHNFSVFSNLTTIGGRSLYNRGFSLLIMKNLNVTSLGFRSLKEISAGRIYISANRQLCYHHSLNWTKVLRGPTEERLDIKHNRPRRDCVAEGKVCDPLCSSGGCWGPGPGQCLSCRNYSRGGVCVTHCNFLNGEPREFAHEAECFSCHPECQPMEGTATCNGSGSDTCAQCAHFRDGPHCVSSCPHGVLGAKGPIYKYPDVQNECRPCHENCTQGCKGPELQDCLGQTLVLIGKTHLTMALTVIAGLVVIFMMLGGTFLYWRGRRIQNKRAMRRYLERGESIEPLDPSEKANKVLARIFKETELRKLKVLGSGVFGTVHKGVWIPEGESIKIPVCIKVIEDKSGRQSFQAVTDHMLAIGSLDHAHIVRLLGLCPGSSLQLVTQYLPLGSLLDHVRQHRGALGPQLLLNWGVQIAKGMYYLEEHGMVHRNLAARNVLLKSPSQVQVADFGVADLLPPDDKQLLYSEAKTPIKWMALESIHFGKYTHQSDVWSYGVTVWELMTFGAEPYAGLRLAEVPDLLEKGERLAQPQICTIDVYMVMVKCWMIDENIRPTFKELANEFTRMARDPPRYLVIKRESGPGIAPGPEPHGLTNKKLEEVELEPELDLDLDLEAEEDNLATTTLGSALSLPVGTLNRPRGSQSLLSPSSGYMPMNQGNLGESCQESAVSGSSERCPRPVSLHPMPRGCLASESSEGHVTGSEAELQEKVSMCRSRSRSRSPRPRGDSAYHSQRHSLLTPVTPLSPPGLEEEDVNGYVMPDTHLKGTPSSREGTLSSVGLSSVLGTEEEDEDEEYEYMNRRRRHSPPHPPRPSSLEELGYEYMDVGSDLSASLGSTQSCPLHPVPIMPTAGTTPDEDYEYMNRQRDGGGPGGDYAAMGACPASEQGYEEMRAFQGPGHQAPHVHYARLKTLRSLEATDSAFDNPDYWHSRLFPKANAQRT

[11] = biological target: T9, MST4 (Homo sapiens, UniProt Q9P289); assay: Kinome scan profile; assay type: binding; conditions: 10 μM
T9 construct: purchased DiscoverX (KINOMEscan)
T9 sequence (Q9P289 whole entry): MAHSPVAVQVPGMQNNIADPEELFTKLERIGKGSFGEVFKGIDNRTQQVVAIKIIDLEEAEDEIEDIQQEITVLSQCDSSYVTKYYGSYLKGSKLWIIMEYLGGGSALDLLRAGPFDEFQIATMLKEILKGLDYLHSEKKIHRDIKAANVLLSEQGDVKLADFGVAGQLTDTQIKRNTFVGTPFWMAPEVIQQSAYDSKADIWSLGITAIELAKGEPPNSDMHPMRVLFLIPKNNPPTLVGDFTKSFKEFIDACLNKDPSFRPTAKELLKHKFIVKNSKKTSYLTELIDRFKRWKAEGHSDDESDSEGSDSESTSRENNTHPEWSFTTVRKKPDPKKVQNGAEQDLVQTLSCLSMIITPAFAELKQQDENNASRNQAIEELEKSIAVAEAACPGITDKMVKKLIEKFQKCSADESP

- % Control, CDK4-cyclinD3 [1]: 15 % Control
- % Control, IKK-epsilon [2]: 31 % Control
- % Control, RSK2(Kin.Dom.2-C-terminal) [3]: 29 % Control
- % Control, TRKA [4]: 22 % Control
- number of human kinases interacting (Interactions Mapped, 468 Assays Tested) ([5]; 10 μM): 16
- S-Score(35) ([5]; 10 µM, 468 assays): 0.03
- % Control, TYK2(JH1domain-catalytic) [6]: 19 % Control
- % Control, MYLK [7]: 31 % Control
- pIC50 ([8]; P. falciparum NF54 stage III-V gametocytes, 72 h, AlamarBlue, mean ± SD, n = 3): 5.38 and 5.36
- % Control, JAK2(JH1domain-catalytic) [9]: 31 % Control
- % Control, ERBB3 [10]: 17 % Control
- % Control, MST4 [11]: 34 % Control
SMILES: CCN1CCN(Cc2c(O)ccc3c(=O)c(Oc4ccccc4C(C)C)c(C(F)(F)F)oc23)CC1 [NCGC00100599]
- Asexual/Gametocyte ([8]; ratio of asexual IC50 to gametocyte IC50): 0.08
